Measurements as given in patent publication US10787450B2 (BRISTOL-MYERS SQUIBB COMPANY, priority 2016, dated 2020).

The compounds below were run against ROCK2 (Homo sapiens (Human), UniProt O75116) (assay: ROCK2 kinase inhibition assay (FITC peptide substrate, LABCHIP 3000 Reader)). Settings: 5 μM ATP, 1.5 μM peptide substrate.
Format: biochemical
Outline: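 IC50 derived by curve fitting of dose-response inhibition, read as separation of phosphorylated from unphosphorylated FITC peptide (1.5 μM) after EDTA stop. Buffer: HEPES pH 7.5, MgCl2, Brij-35, DTT; ATP 5 μM; final DMSO <2%; reaction initiated by Rho kinase addition.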

ROCK2, sequence (O75116 whole entry, species assumed): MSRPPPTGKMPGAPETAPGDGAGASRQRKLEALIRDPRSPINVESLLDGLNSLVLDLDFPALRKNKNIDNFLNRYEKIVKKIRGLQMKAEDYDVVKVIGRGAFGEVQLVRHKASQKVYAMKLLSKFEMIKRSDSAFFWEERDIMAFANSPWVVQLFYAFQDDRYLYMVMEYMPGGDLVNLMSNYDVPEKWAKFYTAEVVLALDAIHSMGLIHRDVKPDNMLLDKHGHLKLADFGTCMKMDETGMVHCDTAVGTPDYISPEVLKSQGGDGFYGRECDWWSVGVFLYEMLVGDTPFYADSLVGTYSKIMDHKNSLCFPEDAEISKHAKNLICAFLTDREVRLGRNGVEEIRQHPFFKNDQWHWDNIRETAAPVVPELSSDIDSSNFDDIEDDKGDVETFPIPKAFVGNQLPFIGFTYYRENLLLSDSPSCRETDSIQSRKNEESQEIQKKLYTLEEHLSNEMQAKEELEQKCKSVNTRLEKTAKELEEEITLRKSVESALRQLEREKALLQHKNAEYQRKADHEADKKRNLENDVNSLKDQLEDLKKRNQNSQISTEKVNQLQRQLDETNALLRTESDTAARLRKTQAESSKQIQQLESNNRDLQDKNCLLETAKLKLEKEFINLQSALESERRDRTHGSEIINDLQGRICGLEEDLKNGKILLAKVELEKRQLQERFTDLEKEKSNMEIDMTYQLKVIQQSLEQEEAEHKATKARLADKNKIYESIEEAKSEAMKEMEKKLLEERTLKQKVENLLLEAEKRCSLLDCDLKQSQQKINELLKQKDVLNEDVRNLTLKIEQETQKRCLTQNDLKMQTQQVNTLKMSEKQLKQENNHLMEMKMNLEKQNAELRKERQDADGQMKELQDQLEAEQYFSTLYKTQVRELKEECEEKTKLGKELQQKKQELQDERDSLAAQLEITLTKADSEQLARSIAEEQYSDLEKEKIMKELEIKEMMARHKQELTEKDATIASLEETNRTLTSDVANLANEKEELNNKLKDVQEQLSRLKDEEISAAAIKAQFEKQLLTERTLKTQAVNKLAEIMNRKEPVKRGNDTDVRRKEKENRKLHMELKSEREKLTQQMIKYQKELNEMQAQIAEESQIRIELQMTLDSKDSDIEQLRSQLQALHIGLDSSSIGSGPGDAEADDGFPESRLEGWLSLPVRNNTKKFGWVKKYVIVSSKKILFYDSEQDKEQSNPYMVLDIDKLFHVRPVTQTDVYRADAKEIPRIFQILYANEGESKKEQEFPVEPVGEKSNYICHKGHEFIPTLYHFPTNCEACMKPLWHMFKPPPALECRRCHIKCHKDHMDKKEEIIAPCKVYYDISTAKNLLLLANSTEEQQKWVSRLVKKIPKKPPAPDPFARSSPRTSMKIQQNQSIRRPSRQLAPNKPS

| SMILES | IC50 [nM] |
| --- | --- |
| COc1cccc(CN2C(=O)N(c3ncc(-c4cn[nH]c4)c(OC)n3)CC23CCN(C(=O)C(C)(C)O)CC3)c1 [Example 212, 8-(2-hydroxy-2-methylpropanoyl)-3-(4-methoxy-5-(1H-pyrazol-4-yl)pyrimidin-2-yl)-1-(3-methoxybenzyl)-1,3,8-triazaspiro[4.5]decan-2-one] | 3 to 30 |
| COc1nc(N2CC3(CCN(CC(C)(C)O)CC3)N(Cc3cccc(F)c3C)C2=O)ccc1-c1cn[nH]c1 [Example 167, 1-(3-fluoro-2-methylbenzyl)-8-(2-hydroxy-2-methylpropyl)-3-(6-methoxy-5-(1H-pyrazol-4-yl)pyridin-2-yl)-1,3,8-triazaspiro[4.5]decan-2-one] | < 3 |
| COc1cccc(CN2C(=O)N(c3ccc(-c4cn[nH]c4)cc3)CC23CCN(CCO)CC3)c1 [Example 141, 3-(4-(1H-pyrazol-4-yl)phenyl)-8-(2-hydroxyethyl)-1-(3-methoxybenzyl)-1,3,8-triazaspiro[4.5]decan-2-one] | < 3 |
| COc1cccc(NC2C(=O)N(c3ccc(-c4cn[nH]c4)cn3)CC23CCN(C(=O)CCn2cc(C)c4ccccc42)CC3)c1 (stereo not shown) [Example 256, 2-(5-(1H-pyrazol-4-yl)pyridin-2-yl)-4-((3-methoxy-phenyl)amino)-8-(3-(3-methyl-1H-indol-1-yl)propanoyl)-2,8-diazaspiro [4.5]decan-3-one] | 30 to 250 |
| COc1cc(F)cc(CN2C(=O)N(c3ccc(-c4cn[nH]c4)cc3)CC23CCN(C(=O)C(C)(C)O)CC3)c1 [Example 190, 3-(4-(1H-pyrazol-4-yl)phenyl)-1-(3-fluoro-5-methoxybenzyl)-8-(2-hydroxy-2-methylpropanoyl)-1,3,8-triazaspiro[4.5] decan-2-one] | < 3 |
| COc1nc(N2CC3(CCN(C(=O)C(C)(C)CO)CC3)N(Cc3cccc(F)c3C)C2=O)ccc1-c1cn[nH]c1 [Example 228, 1-(3-fluoro-2-methylbenzyl)-8-(3-hydroxy-2,2-dimethylpropanoyl)-3-(6-methoxy-5-(1H-pyrazol-4-yl)pyridin-2-yl)-1,3,8-triazaspiro[4.5]decan-2-one] | < 3 |
| COc1cccc(CN2C(=O)N(c3ccc(-c4cn[nH]c4)c(OC)n3)CC23CCN(C(=O)C2COC2)CC3)c1 [Example 223, 3-(6-methoxy-5-(1H-pyrazol-4-yl)pyridin-2-yl)-1-(3-methoxybenzyl)-8-(oxetane-3-carbonyl)-1,3,8-triazaspiro[4.5]decan-2-one] | < 3 |
| COc1cccc(CN2C(=O)N(c3ncc(-c4cn[nH]c4)c(OC)n3)CC23CCN(C(C)=O)CC3)c1 [Example 90, 8-acetyl-3-(4-methoxy-5-(1H-pyrazol-4-yl)pyrimidin-2-yl)-1-(3-methoxybenzyl)-1,3,8-triazaspiro[4.5]decan-2-one] | 3 to 30 |
| COc1cccc(CN2C(=O)N(c3ccc(-c4cn[nH]c4)c(OC)n3)CC23CCN(C(=O)C(C)O)CC3)c1 (stereo not shown) [Example 221, 8-(2-hydroxypropanoyl)-3-(6-methoxy-5-(1H-pyrazol-4-yl)pyridin-2-yl)-1-(3-methoxybenzyl)-1,3,8-triazaspiro[4.5]decan-2-one] | < 3 |
| CN(C)C1CN(C(=O)c2cccc(CN3C(=O)N(c4ccc(-c5cn[nH]c5)cc4)CC34CCOCC4)c2)C1 [Example 46, 3-(4-(1H-pyrazol-4-yl)phenyl)-1-(3-(3-(dimethylamino)azetidine-1-carbonyl)benzyl)-8-oxa-1,3-diazaspiro[4.5]decan-2-one] | 3 to 30 |
| COc1cccc(CN2C(=O)N(c3ccc(-c4cn[nH]c4)cc3)CC23CCN(C(=O)[C@H](C)O)CC3)c1 [Example 177, (S)-3-(4-(1H-pyrazol-4-yl)phenyl)-8-(2-hydroxypropanoyl)-1-(3-methoxybenzyl)-1,3,8-triazaspiro[4.5]decan-2-one] | < 3 |
| CCc1nc(N2CC3(CCN(C(C)=O)CC3)N(Cc3cccc(F)c3C)C2=O)ccc1-c1cn[nH]c1 [Example 87, 8-acetyl-3-(6-ethyl-5-(1H-pyrazol-4-yl)pyridin-2-yl)-1-(3-fluoro-2-methylbenzyl)-1,3,8-triazaspiro[4.5]decan-2-one] | < 3 |
| COC(=O)N1CCC2(CC1)CN(c1ccc(-c3cn[nH]c3)cc1)C(=O)N2Cc1cccc(F)c1C [Example 108, methyl 3-(4-(1H-pyrazol-4-yl)phenyl)-1-(3-fluoro-2-methylbenzyl)-2-oxo-1,3,8-triazaspiro[4.5]decane-8-carboxylate] | < 3 |
| COc1cccc(CN2C(=O)N(c3ncc(-c4cn[nH]c4)c(OC)n3)CC23CCN(C(=O)C(C)C)CC3)c1 [Example 215, 8-isobutyryl-3-(4-methoxy-5-(1H-pyrazol-4-yl)pyrimidin-2-yl)-1-(3-methoxybenzyl)-1,3,8-triazaspiro[4.5]decan-2-one] | 30 to 250 |
| COc1cccc(NC2C(=O)N(c3ccc(-c4cn[nH]c4)cc3)CC23CN(C(C)=O)C3)c1 (stereo not shown) [Example 244, 6-(4-(1H-pyrazol-4-yl)phenyl)-2-acetyl-8-((3-methoxy-phenyl)amino)-2,6-diazaspiro [3.4]octan-7-one] | 250 to 3000 |
| COc1cccc(CN2C(=O)N(c3ncc(-c4cn[nH]c4)c(OC)n3)CC23CCN(C(=O)OC(C)(C)C)CC3)c1 [Example 56, tert-butyl 3-(4-methoxy-5-(1H-pyrazol-4-yl)pyrimidin-2-yl)-1-(3-methoxybenzyl)-2-oxo-1,3,8-triazaspiro[4.5]decane-8-carboxylate] | 3 to 30 |

| SMILES | IC50 [nM] |
| --- | --- |
| COc1cccc(CN2C(=O)N(c3ccc(-c4cn[nH]c4)c(OC)n3)CC23CCN(CC(C)O)CC3)c1 (stereo not shown) [Example 147, 8-(2-hydroxypropyl)-3-(6-methoxy-5-(1H-pyrazol-4-yl)pyridin-2-yl)-1-(3-methoxybenzyl)-1,3,8-triazaspiro[4.5]decan-2-one] | < 3 |
| COc1cccc(CN2C(=O)N(c3ccc(-c4cn[nH]c4)cn3)CC23CCN(CCO)CC3)c1 [Example 159, 3-(5-(1H-pyrazol-4-yl)pyridin-2-yl)-8-(2-hydroxyethyl)-1-(3-methoxybenzyl)-1,3,8-triazaspiro[4.5]decan-2-one] | < 3 |
| COc1cccc(CN2C(=O)N(c3ccc(-c4cn[nH]c4)cc3)CC23CCN(C(=O)C(C)(C)O)CC3)c1 [Example 192, 3-(4-(1H-pyrazol-4-yl)phenyl)-8-(2-hydroxy-2-methylpropanoyl)-1-(3-methoxybenzyl)-1,3,8-triazaspiro[4.5]decan-2-one] | < 3 |
| COc1cccc(CN2C(=O)N(c3ccc(-c4cn[nH]c4)cc3)CC23CCN(C(=O)OCC(C)C)CC3)c1 [Example 95, isobutyl 3-(4-(1H-pyrazol-4-yl)phenyl)-1-(3-methoxybenzyl)-2-oxo-1,3,8-triazaspiro[4.5]decane-8-carboxylate] | < 3 |
| O=C1N(c2ccc(-c3cn[nH]c3)cc2)CC2(CCOCC2)N1Cc1cccc(Cl)c1 [Example 15] | 250 to 3000 |
| COc1cccc(CN2C(=O)N(c3ccc(-c4cn[nH]c4)cc3)CC23CCN(CC(C)O)CC3)c1 (single isomer, unassigned) [Example 140, 3-(4-(1H-pyrazol-4-yl)phenyl)-8-(2-hydroxypropyl)-1-(3-methoxybenzyl)-1,3,8-triazaspiro[4.5]decan-2-one] | < 3 |
| COc1cccc(CN2C(=O)N(c3ccc(-c4cn[nH]c4)cn3)CC23CCN(C(=O)C(C)O)CC3)c1 (stereo not shown) [Example 198, 3-(5-(1H-pyrazol-4-yl)pyridin-2-yl)-8-(2-hydroxypropanoyl)-1-(3-methoxybenzyl)-1,3,8-triazaspiro[4.5]decan-2-one] | 3 to 30 |
| COC(=O)N1CCC2(CC1)CN(c1ccc(-c3cn[nH]c3)cc1)C(=O)N2Cc1cccc(OC)c1 [Example 94, Methyl 3-(4-(1H-pyrazol-4-yl)phenyl)-1-(3-methoxybenzyl)-2-oxo-1,3,8-triazaspiro[4.5]decane-8-carboxylate] | < 3 |
| Cc1c(F)cccc1CN1C(=O)N(c2ccc(-c3cn[nH]c3)cc2)CC12CCN(CC(F)F)CC2 [Example 131, 3-(4-(1H-pyrazol-4-yl)phenyl)-8-(2,2-difluoroethyl)-1-(3-fluoro-2-methylbenzyl)-1,3,8-triazaspiro[4.5]decan-2-one] | < 3 |
| CNC(=O)N1CCC2(CC1)CN(c1ccc(-c3cn[nH]c3)cc1)C(=O)N2Cc1cccc(OC)c1 [Example 91, 3-(4-(1H-pyrazol-4-yl)phenyl)-1-(3-methoxybenzyl)-N-methyl-2-oxo-1,3,8-triazaspiro[4.5]decane-8-carboxamide] | < 3 |
| CCc1nc(N2CC3(CCN(CCC(F)(F)F)CC3)N(Cc3cc(F)cc(OC)c3)C2=O)ccc1-c1cn[nH]c1 [Example 128, 3-(6-ethyl-5-(1H-pyrazol-4-yl)pyridin-2-yl)-1-(3-fluoro-5-methoxybenzyl)-8-(3,3,3-tnfluoropropyl)-1,3,8-triazaspiro[4.5]decan-2-one] | 3 to 30 |
| CCc1nc(N2CC3(CCN(CC(C)(C)O)CC3)N(Cc3cccc(OC)c3)C2=O)ccc1-c1cn[nH]c1 [Example 152, 3-(6-ethyl-5-(1H-pyrazol-4-yl)pyridin-2-yl)-8-(2-hydroxy-2-methylpropyl)-1-(3-methoxybenzyl)-1,3,8-triazaspiro[4.5]decan-2-one] | < 3 |
| CCc1nc(N2CC3(CCN(C(=O)OC)CC3)N(Cc3cc(F)cc(OC)c3)C2=O)ccc1-c1cn[nH]c1 [Example 107, methyl 3-(6-ethyl-5-(1H-pyrazol-4-yl)pyridin-2-yl)-1-(3-fluoro-5-methoxybenzyl)-2-oxo-1,3,8-triazaspiro[4.5]decane-8-carboxylate] | < 3 |
| COc1cccc(CN2C(=O)N(c3ccc(-c4cn[nH]c4)cc3)CC23CCN(C)CC3)c1 [Example 113, 3-(4-(1H-pyrazol-4-yl)phenyl)-1-(3-methoxybenzyl)-8-methyl-1,3,8-triazaspiro[4.5]decan-2-one] | < 3 |
| O=C(NCC1CC1)c1cccc(CN2C(=O)N(c3ccc(-c4cn[nH]c4)cc3)CC23CCOCC3)c1 [Example 37, 3-((3-(4-(1H-pyrazol-4-yl)phenyl)-2-oxo-8-oxa-1,3-diazaspiro[4.5]decan-1-yl)methyl)-N-(cyclopropylmethyl)benzamide] | < 3 |
